From patent US11780841B2, “3,6-methano-1H-pyrrolo[3,2-b]pyridine and 3,6-methano-1H-pyrrolo[3,2-c]pyridine compounds and medicaments using same” (priority 2018, dated 2023) come the findings set out here.

Read-outs that look alike come from different tables or passages of the source.

In this test the test system is recombinant rabies virus 1088 strain expressing Gaussia Luciferase (GLuc) (1088/GLuc). Format: cell-based.

Regarding `CC(C)CNC(=O)[C@]12NC[C@@H]3C[C@H]1CN(CC(C)C)[C@H]2[C@@H]3Cc1ccccc1` (relative stereo) [IB-3], the IC50 runs as follows: (read-out: Anti-rabies activity) 10 to 30 µM; (read-out: IC50) 19.6 µM.
In the same order, the values of `CC(C)CNC(=O)[C@]12NC[C@@H]3C[C@H]1CN(Cc1ccccc1)[C@H]2[C@@H]3CC(C)C` (relative stereo) [IB-4] are 10 to 30 µM and 19.2 µM.
On the same counts, the results for `CC(C)C[C@@H]1[C@@H]2CN[C@@]3(C(=O)NCc4ccccc4)[C@@H](C2)CN(CC(C)C)[C@@H]13` (relative stereo) [IB-5] are 10 to 30 µM and 18.2 µM.
In the same order, the values of `CC(C)CCN1C[C@@H]2C[C@H]3CN[C@]2(C(=O)NCc2ccccc2)[C@@H]1[C@@H]3Cc1ccccc1` (relative stereo) [IB-9] are 10 to 30 µM and 17 µM.
`CC(C)C[C@@H]1[C@@H]2CN[C@@]3(C(=O)NCCc4ccccc4)[C@@H](C2)CN(Cc2ccccc2)[C@@H]13` (relative stereo) [IB-12]: the IC50 reads like this: (read-out: Anti-rabies activity) 10 to 30 µM; (read-out: IC50) 15.5 µM.
On the same counts, the results for `Cc1cccc(C[C@@H]2[C@@H]3CN[C@@]4(C(=O)NCc5ccccc5)[C@@H](C3)CN(CC(C)C)[C@@H]24)c1` (relative stereo) [IB-13] are 10 to 30 µM and 14.3 µM.
Take `Cc1cccc(CNC(=O)[C@]23NC[C@@H]4C[C@H]2CN(CC(C)C)[C@H]3[C@@H]4Cc2ccccc2)c1` (relative stereo) [IB-15]: the IC50 is, setting by setting: (read-out: Anti-rabies activity) 10 to 30 µM; (read-out: IC50) 15.9 µM.
For `O=C(NCc1ccccc1)[C@]12NC[C@H]3C[C@H]1CN(Cc1cccc4ccccc14)[C@H]2[C@@H]3Cc1ccccc1` (relative stereo) [IB-42, (3S*,3aS*,6S*,7R*,7aS*)-N,7-dibenzyl-1-(naphthalen-1-ylmethyl)octahydro-3aH-3,6-methanopyrrolo[3,2-b]pyridine-3a-carboxamide], the IC50 (read-out: Anti-rabies activity) fell in the range of 10 to 30 µM.
As for `CC(C)C[C@@H]1[C@H]2CN[C@@]3(C(=O)NCc4cccc5ccccc45)[C@@H](C2)CN(CC(N)=O)[C@@H]13` (relative stereo) [IB-81], the IC50 (read-out: Anti-rabies activity) fell in the range of 10 to 30 µM.
On the same count and under the same terms, the same measure for `NC(=O)CN1C[C@@H]2C[C@@H]3CN[C@]2(C(=O)NCc2cccc4ccccc24)[C@@H]1[C@@H]3Cc1ccccc1` (relative stereo) [IB-82]: 10 to 30 µM; for `NC(=O)CN1C[C@@H]2C[C@@H]3CN[C@]2(C(=O)NCc2cccc4ccccc24)[C@@H]1[C@@H]3Cc1ccc(O)cc1` (relative stereo) [IB-83]: 10 to 30 µM; for `CC(C)C[C@@H]1[C@@H]2CN[C@@]3(C(=O)NCc4cccc5ccccc45)[C@@H](C2)CN(CCCNC(=N)N)[C@@H]13` (relative stereo) [IB-164, (3S*,3aS*,6R*,7R*,7aS*)-1-(3-guanidinopropyl)-7-isobutyl-N-(naphthalen-1-ylmethyl)octahydro-3aH-3,6-methanopyrrolo[3,2-b]pyridine-3a-carboxamide]: under 5 µM.
For `CCN1C[C@H]2C[C@H]3CN(Cc4ccc(C)cc4)[C@@H]([C@@H]2CC(C)C)[C@]31C(=O)NCc1ccccc1` (relative stereo) [IB-880], the IC50 (read-out: Anti-rabies activity) was under 5 µM.
Still for that read-out and setting: as for `Cc1ccc(CN2C[C@@H]3C[C@@H]4CN(CC(C)C)[C@]3(C(=O)NCc3ccccc3)[C@@H]2[C@@H]4CC(C)C)cc1` (relative stereo) [IB-881], the figure is under 5 µM; as for `Cc1ccc(CN2C[C@@H]3C[C@@H]4CN(C(=O)CC(C)C)[C@]3(C(=O)NCc3ccccc3)[C@@H]2[C@@H]4CC(C)C)cc1` (relative stereo) [IB-883], under 5 µM.
On the same count and under the same terms, the same measure for `COC(=O)N1C[C@H]2C[C@H]3CN(Cc4ccc(C)cc4)[C@@H]([C@@H]2CC(C)C)[C@]31C(=O)NCc1ccccc1` (relative stereo) [IB-885]: 5 to 10 µM; for `Cc1ccc(CN2C[C@@H]3C[C@@H]4CN(C(=O)OCC(C)C)[C@]3(C(=O)NCc3ccccc3)[C@@H]2[C@@H]4CC(C)C)cc1` (relative stereo) [IB-886]: 5 to 10 µM.
On the same count and under the same terms, as for `Cc1ccc(CN2C[C@@H]3C[C@@H]4CN(C(N)=O)[C@]3(C(=O)NCc3ccccc3)[C@@H]2[C@@H]4CC(C)C)cc1` (relative stereo) [IB-888], the figure is 10 to 30 µM; as for `CC(C)C[C@@H]1[C@H]2CN[C@@]3(C(=O)NCc4cccc(O)c4)[C@@H](C2)CN(Cc2ccc(N(C)C)cc2)[C@@H]13` (relative stereo) [IB-891], 10 to 30 µM; as for `CC(C)C[C@@H]1[C@H]2CN[C@@]3(C(=O)NCc4ccc(O)cc4)[C@@H](C2)CN(Cc2ccc(N(C)C)cc2)[C@@H]13` (relative stereo) [IB-892], 10 to 30 µM.
For the molecule `CC(C)CN1C[C@H]2C[C@]3(C(=O)NCc4ccccc4)NC[C@H]2[C@H]1[C@H]3Cc1ccccc1` (relative stereo) [IF-1, (3S*,3aS*,6S*,7R*,7aS*)-N,7-dibenzyl-1-isobutyloctahydro-6H-3,6-methanopyrrolo[3,2-c]pyridine-6-carboxamide], the IC50 runs as follows: (read-out: Anti-rabies activity) 10 to 30 µM; (read-out: IC50) 12.6 µM.
On the same counts, the results for `CC(C)CNC(=O)[C@@]12C[C@@H]3CN(Cc4ccccc4)[C@@H]([C@@H]3CN1)[C@H]2Cc1ccccc1` (relative stereo) [IF-6] are 10 to 30 µM and 16.3 µM.
As for `CC(C)C[C@@H]1[C@@H]2[C@@H]3CN[C@@]1(C(=O)NCc1ccccc1)C[C@@H]3CN2Cc1ccccc1` (relative stereo) [IF-7], the IC50 reads like this: (read-out: Anti-rabies activity) 5 to 10 µM; (read-out: IC50) 8.5 µM.
In the same order, the values of `CC(C)CCN1C[C@H]2C[C@]3(C(=O)NCc4ccccc4)NC[C@H]2[C@H]1[C@H]3Cc1ccccc1` (relative stereo) [IF-9] are 10 to 30 µM and 15.6 µM.
On the same counts, the results for `CC(C)CN1C[C@H]2C[C@]3(C(=O)NCc4ccccc4)NC[C@H]2[C@H]1[C@H]3CCc1ccccc1` (relative stereo) [IF-11] are 10 to 30 µM and 17.5 µM.
In the same order, the values of `Cc1cccc(C[C@@H]2[C@@H]3[C@@H]4CN[C@@]2(C(=O)NCc2ccccc2)C[C@@H]4CN3CC(C)C)c1` (relative stereo) [IF-13] are 10 to 30 µM and 13.1 µM.
`Cc1ccc(C[C@@H]2[C@@H]3[C@@H]4CN[C@@]2(C(=O)NCc2ccccc2)C[C@@H]4CN3CC(C)C)cc1` (relative stereo) [IF-14]: the IC50 is, setting by setting: (read-out: Anti-rabies activity) 10 to 30 µM; (read-out: IC50) 14.1 µM.
On to `Cc1cccc(CNC(=O)[C@@]23C[C@@H]4CN(CC(C)C)[C@@H]([C@@H]4CN2)[C@H]3Cc2ccccc2)c1` (relative stereo) [IF-15], for which the IC50 (read-out: Anti-rabies activity) is 10 to 30 µM and the IC50 (read-out: IC50) was 17.1 µM.
On the same counts, the results for `CC(C)C[C@@H]1[C@@H]2[C@@H]3CN[C@@]1(C(=O)NCc1ccc(Cl)c(Cl)c1)C[C@@H]3CN2Cc1ccccc1` (relative stereo) [IF-20] are 10 to 30 µM and 11.6 µM.
For the molecule `CC(C)CN1C[C@H]2C[C@]3(C(=O)NCc4ccccc4)NC[C@H]2[C@H]1[C@H]3CC1CCCCC1` (relative stereo) [IF-38], the IC50 (read-out: Anti-rabies activity) lay within 10 to 30 µM.
Same read-out and setting: as for `O=C(NCc1ccccc1)[C@@]12C[C@@H]3CN(Cc4cccc5ccccc45)[C@@H]([C@@H]3CN1)[C@H]2Cc1ccccc1` (relative stereo) [IF-42], the figure is 10 to 30 µM.
Take `CCC1N[C@@]2(C(=O)NCc3ccccc3)C[C@@H]3CN(CC(C)C)[C@@H]([C@H]13)[C@H]2Cc1ccccc1` (relative stereo) [IF-69]: the IC50 runs as follows: (read-out: Anti-rabies activity) 10 to 30 µM; (read-out: IC50) 16.5 µM.
